Values after ≈ are worked out from the molar mass of the structure shown.
How the values were obtained:
TLR 3 = TLR 3 transcription ratio, AD patient / control PBMCs (qPCR); type: cell-based, human; conditions: Aβ stimulation
Protocol: (§1) qPCR reactions of cultured monocyte cDNAs. One μL total cellular cDNA per reaction is used in triplicate reactions for each test gene, and for each culture treatment. SYBR-Green reactions were run on a Continuous Fluorescence real-time thermocycler and analyzed. Cycle threshold (Ct) values are recorded for each replicate reaction, and are then averaged and normalized against mean Ct values from one or more control genes. Fold-expression differences relative to untreated cells are determined using the 2^−ΔΔCt method as previously described. Data from the curcumin concentration range are plotted in order to determine EC50 values (concentrations producing one-half maximal stimulant activity), which are used for comparisons of potency between different compounds. Data are also evaluated for each gene with regard to sensitivity, maximally effective concentration of curcuminoid, response to Aβ, and overall magnitude of fold-expression changes.
(§2) MGAT3 and/or TLR transcription were tested by qPCR in human monocyte cells treated with curcuminoids and compared the results to those treated with vehicle (Table 7). As discussed above, activation or up-regulation of macrophage MGAT3 or TLR's results in many functional outcomes, including the enhancement of […] and removal of Aβ, increased apoptosis, secretion of inflammatory cytokines, and other anti-AD antimicrobial activities. […] Thus, the ratio of MGAT3 or TLR transcription upon Aβ stimulation of human monocytes versus vehicle treatment provides an indicator and sensitive method to test the in vitro efficacy of drug candidates. […] The relative biological activity of the curcumin analogs in AD patient and control cells was ascertained in the in vitro Aβ assay described above (see Example 2).

[1] = Metabolic stability in human liver microsomes; type: in vitro ADME; conditions: human, read-out: Half life, t1/2 HLM
[2] = Chemical stability (H2O, pH 7.4); type: physicochemical
TLR 2 = TLR 2 transcription ratio, AD patient / control PBMCs (qPCR); type: cell-based, human; conditions: Aβ stimulation
Protocol: as §1, §2

[3] = Metabolic stability in human S9 fraction; type: in vitro ADME; conditions: read-out: Half life, t1/2 S9
TLR 4 = TLR 4 transcription ratio, AD patient / control PBMCs (qPCR); type: cell-based, human; conditions: Aβ stimulation
Protocol: as §1, §2

MGAT3 [4] = assay: MGAT3 transcription ratio, AD patient / control PBMCs (qPCR); type: cell-based, human; conditions: Aβ stimulation
Protocol: as §1, §2

Average permeability = type: in vitro ADME; conditions: not told
Average solubility = type: physicochemical
MGAT3 [5] = assay: MGAT3 gene expression by qPCR in U-937 human monocytic cells treated with curcumins plus Aβ; type: cell-based; conditions: human monocytic cells (U-937), curcumin plus Aβ
Protocol: (§3) Cell culture conditions for monocytic cell lines. Human and mouse monocyte cell lines are grown in RPMI-1640 medium with 10% fetal bovine serum (FBS), plus glutamine and pen/strep. For treatment with compounds (curcuminoids+/−Aβ), replicate sets of 0.5-1.0 mL cultures containing 1-2×10^6 cells are set up in the wells of 48-well tissue culture plates. Both replicate sets have at least one control well receiving no added curcuminoid to provide baseline expression controls for untreated, and Aβ-only treated cells. Remaining wells receive curcuminoid in a range of 10-fold serial dilutions in DMSO, typically from […] Cultures are incubated for 20-24 hours (“overnight”) at 37° C. in atmosphere with 5% CO2. After one overnight, to one of replicate sets of cultures is added Aβ (1-42) peptide to a final concentration of 5 μg/mL.
(§4) RNA isolation and cDNA synthesis. After the first overnight incubation in the presence of curcuminoid, cells from one replicate set of wells are collected by centifugation. RNAs are extracted from pelleted cells using miniprep column kits following manufacturer's protocol for animal cells. […] of total cellular RNA from each well is quantitated using a Nanodrop spectrophotometer, and first-strand total cDNA is prepared from 0.3-1.0 μg RNA by random-hexamer priming. Following the second 20 hr. incubation in the presence of Aβ, RNA extractions and cDNA synthesis are similarly performed.
Assay development. Gene-specific mRNA levels are determined using a real-time thermocycler, and by normalizing to expression of one or more control genes. Assays for quantifying mRNA levels are based on gene sequences reported in NCBI Genbank. PCR oligonucleotide primers are selected spanning introns to minimize the opportunity for amplication from any contaminating genomic DNA in the RNA preps. Oligonucleotides are typically tested and used at a concentration of 200 nM in qPCR reactions containing SYBR dye. Control reactions include template from cDNA synthesis reactions either + or − reverse transcriptase (RT), as well as no-template controls (ntc). […] Melt curves based on incremental 0.5° C. increases are determined for new assays to test for uniformity of amplified products. […]
qPCR reactions of cultured monocyte cDNAs. […] SYBR-Green reactions were run on a Continuous Fluorescence real-time thermocycler and analyzed. Cycle threshold (Ct) values are recorded for each replicate reaction, and are then averaged and normalized against mean Ct values from one or more control genes. Fold-expression differences relative to untreated cells are determined using the 2^−ΔΔCt method as previously described. […] Data are also evaluated for each gene with regard to sensitivity, maximally effective concentration of curcuminoid, response to Aβ, and overall magnitude of fold-expression changes. […]

TLR3 = TLR3 gene expression by qPCR in U-937 human monocytic cells treated with curcumins plus Aβ; type: cell-based; conditions: human monocytic cells (U-937), curcumin plus Aβ
Protocol: as §3, §4
(§5) Assay development. Gene-specific mRNA levels are determined using a real-time thermocycler, and by normalizing to expression of one or more control genes. Assays for quantifying mRNA levels are based on gene sequences reported in NCBI Genbank. PCR oligonucleotide primers are selected spanning introns to minimize the opportunity for amplication from any contaminating genomic DNA in the RNA preps. Oligonucleotides are typically tested and used at a concentration of 200 nM in qPCR reactions containing SYBR dye. Control reactions include template from cDNA synthesis reactions either + or − reverse transcriptase (RT), as well as no-template controls (ntc). All reactions are performed in triplicate. Reactions are typically run with 40 cycles of 95° C. (10 sec) and 58° C. (30 sec). Melt curves based on incremental 0.5° C. increases are determined for new assays to test for uniformity of amplified products. Reaction conditions are modified as needed depending on initial test results. ‘Working’ assays are selected based on clear RNA-dependent amplification and absence of product in ‘ntc’ reactions. The following assay primers are used: […]
as §1
(§6) Data showing in vitro up-regulation of genes associated with Aβ phagocytosis in response to curcumins. Natural curcumins and synthetic analogs were tested in U-937 human monocyte cells in vitro for their ability to modulate expression of the genes MGAT3 and TLRs −2, −3, and −4. […]

TLR2 = TLR2 gene expression by qPCR in U-937 human monocytic cells treated with curcumins plus Aβ; type: cell-based; conditions: human monocytic cells (U-937), curcumin plus Aβ
Protocol: as §3, §4, §5
(§7) qPCR reactions of cultured monocyte cDNAs. One μL total cellular cDNA per reaction is used in triplicate reactions for each test gene, and for each culture treatment. SYBR-Green reactions were run on a Continuous Fluorescence real-time thermocycler and analyzed. Cycle threshold (Ct) values are recorded for each replicate reaction, and are then averaged and normalized against mean Ct values from one or more control genes. Fold-expression differences relative to untreated cells are determined using the 2^−ΔΔCt method as previously described. […] Data are also evaluated for each gene with regard to sensitivity, maximally effective concentration of curcuminoid, response to Aβ, and overall magnitude of fold-expression changes. […]

TLR4 = TLR4 gene expression by qPCR in U-937 human monocytic cells treated with curcumins plus Aβ; type: cell-based; conditions: human monocytic cells (U-937), curcumin plus Aβ
Protocol: as §3, §4, §5, §7

VDR = VDR gene expression by qPCR in U-937 human monocytic cells treated with curcumins plus Aβ; type: cell-based; conditions: human monocytic cells (U-937), curcumin plus Aβ
Protocol: as §3, §4, §5, §1, §6

[6] = water, H2O, read-out: Chemical stability t1/2 H2O (converted)
[7] = water (aqueous solution), pH 7.4, value given in h, read-out: Chemical stability t1/2 pH 7.4 (converted)
[8] = water, H2O, value given in h, read-out: Chemical stability t1/2 H2O (converted)

Structure (SMILES) | Relative ratio of TLR 3 transcription in AD patient / control PBMC's (TLR 3) | half-life [1] [min] | Chemical stability pH 7.4 (stable/unstable) ([2]; pH 7.4) | half-life [2, 6] [min] | Relative ratio of TLR 2 transcription in AD patient / control PBMC's (TLR 2) | half-life [3] [min] | Relative ratio of TLR 4 transcription in AD patient / control PBMC's (TLR 4) | IC50 (Anti-oxidant activity) [µM] | Relative ratio of MGAT3 transcription in AD patient / control PBMC's (MGAT3 [4]) | half-life [2, 7] [min] | half-life [2, 8] [min] | Papp (Average permeability) [×10⁻⁶ cm/s] | solubility (Average solubility) [µg/mL] | Chemical stability H2O (stable/unstable) ([2]; H2O) | Relative gene expression MGAT3, increased expression relative to control cells (MGAT3 [5]) | Relative gene expression TLR3, increased expression relative to control cells (TLR3) | Relative gene expression TLR2, increased expression relative to control cells (TLR2) | Relative gene expression TLR4, increased expression relative to control cells (TLR4) | Relative gene expression VDR, increased expression relative to control cells (VDR) | Solubility compared with parent compounds (in words) (Average solubility)
NCCCCC(N)C(=O)Oc1ccc(/C=C/C(=O)/C=C(O)/C=C/c2ccc(OC(=O)C(N)CCCCN)cc2)cc1 (stereo not shown) [Compound 34, 4,4′-(3,5-Dioxohepta-1,6-diene-1,7-diyl)bis(4,1-phenylene) bis(2,6-diaminohexanoate)] | TLR 3 ++ ((++) indicates a ratio of 1.5-2.0) | 19.9 | unstable^b (stability half-lives less than 5 minutes) | 10.2 | TLR 2 +++ ((+++ to ++++) indicates a ratio of 2.0 and above) | 4.5 | TLR 4 + ((+) indicates a ratio of 1.0-1.5) | > 250 | ++ ((++) indicates a ratio of 1.5-2.0) |  |  |  |  |  |  |  |  |  |  | 
COc1cc(/C=C/C(=O)/C=C(O)/C=C/c2ccc(OC(=O)C(N)C(C)C)c(OC)c2)ccc1OC(=O)C(N)C(C)C (stereo not shown) [Compound 35, 4,4′-(3,5-Dioxohepta-1,6-diene-1,7-diyl)bis(2-methoxy-4,1-phenylene)bis(2-amino-3-methylbutanoate)] |  | 55.8 |  |  | TLR 2 +++ ((+++ to ++++) indicates a ratio of 2.0 and above) | 9 | TLR 4 + ((+) indicates a ratio of 1.0-1.5) |  | ++ ((++) indicates a ratio of 1.5-2.0) | 138 | 1090 | 572 | 22.8 (≈ 40.2 µM) |  |  |  |  |  |  | 
COc1cc(N(C)C)ccc1/C=C/C(O)=C1\CCC/C(=C\c2ccc(N(C)C)cc2OC)C1=O [Compound 7, 2-(4-(Dimethylamino-2-methoxybenzylidene)-3-(4-(dimethylamino)-2-methoxyphenyl)-1-hydroxyallylidene)cyclohexanone] |  | 127 | stable (stability half-lives greater than 5 hours) |  |  | 184 |  |  | +++ ((+++ to ++++) indicates a ratio of 2.0 and above) |  |  | 4.8 |  | stable^a (stability half-lives greater than 5 hours) |  |  |  |  |  | 
COc1cc(N(C)C)ccc1/C=C/C(=O)/C=C(O)/C=C/c1ccc(N(C)C)cc1OC [Compound 3, 1,7-Bis(4-dimethylamino-2-methoxyphenyl)-5-hydroxy-hepta-1,4,6-trien-3-one] | TLR 3 ++ ((++) indicates a ratio of 1.5-2.0) | 63.6 |  |  | TLR 2 ++ ((++) indicates a ratio of 1.5-2.0) | 39.5 | TLR 4 ++ ((++) indicates a ratio of 1.5-2.0) |  | ++ ((++) indicates a ratio of 1.5-2.0) | 1530 | 1190 |  | 0.73 (≈ 1.73 µM) |  |  |  |  |  |  | 
COc1cc(/C=C/C(=O)/C=C(O)/C=C/c2ccc(OC(=O)C(N)CCCCN)c(OC)c2)ccc1OC(=O)C(N)CCCCN (stereo not shown) [Compound 36, 4,4′-(3,5-dioxohepta-1,6-diene-1,7-diyl)bis(2-methoxy-4,1-phenylene)bis(2,6-diaminohexanoate)] |  | 19.9 | unstable (stability half-lives less than 5 minutes) | 10.2 |  | 4.5 |  |  |  |  |  | 718 | 30.6 (≈ 49 µM) |  | + ((+) <20-fold) | + ((+) <20-fold) | + ((+) <20-fold) | + ((+) <20-fold) | + ((+) <20-fold) | significantly improved solubility
COc1ccc(F)cc1/C=C/C(=O)/C=C(O)/C=C/c1cc(F)ccc1OC [Compound 26, 1,7-bis-(5-Fluoro-2-methoxyphenyl)-5-hydroxy-hepta-1,4,6-trien-3-one] | TLR 3 ++ ((++) indicates a ratio of 1.5-2.0) | 59.2 | stable (stability half-lives greater than 5 hours) |  | TLR 2 + ((+) indicates a ratio of 1.0-1.5) | 8.2 | TLR 4 + ((+) indicates a ratio of 1.0-1.5) | > 250 |  |  |  | 129 | 0.44 (≈ 1.18 µM) | stable (stability half-lives greater than 5 hours) |  |  |  |  |  | 

Source: patent US20120040976A1, “SMALL MOLECULE IMMUNOMODULATORS FOR ALZHEIMER'S DISEASE” (HUMAN BIOMOLECULAR RESEARCH INSTITUTE, priority 2008, published 2012)
